Test results as given in PubChem BioAssay (NCI).
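Compound exposure: 48 hours, 5 concentrations, 96-well plates. TGI: concentration producing complete growth inhibition.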

How the values were obtained:
Test in all cases: growth of human tumour cells (NCI), 48 h
[1] = test system: A498 renal
[2] = test system: A549 NSCLC
[3] = test system: ACHN renal
[4] = test system: BT-549 breast
[5] = test system: CCRF-CEM leukemia
[6] = test system: COLO 205 colon
[7] = test system: DU-145 prostate
[8] = test system: EKVX NSCLC
[9] = test system: HCC-2998 colon
[10] = test system: HCT-116 colon
[11] = test system: HCT-15 colon
[12] = test system: HL-60(TB) leukemia
[13] = test system: HOP-62 NSCLC
[14] = test system: HS 578T breast
[15] = test system: HT29 colon
[16] = test system: IGROV1 ovarian
[17] = test system: KM12 colon
[18] = test system: LOX IMVI melanoma
[19] = test system: MALME-3M melanoma
[20] = test system: MCF7 breast
[21] = test system: MDA-MB-231 breast
[22] = test system: MOLT-4 leukemia
[23] = test system: NCI-H226 lung
[24] = test system: NCI-H23 lung
[25] = test system: NCI/ADR-RES ovarian
[26] = test system: OVCAR-3 ovarian
[27] = test system: OVCAR-5 ovarian
[28] = test system: OVCAR-8 ovarian
[29] = test system: PC-3 prostate
[30] = test system: RPMI-8226 leukemia
[31] = test system: RXF 393 renal
[32] = test system: SF-268 CNS
[33] = test system: SF-295 CNS
[34] = test system: SF-539 CNS
[35] = test system: SK-MEL-28 melanoma
[36] = test system: SK-MEL-5 melanoma
[37] = test system: SK-OV-3 ovarian
[38] = test system: SN12C renal
[39] = test system: SNB-19 CNS
[40] = test system: SW-620 colon
[41] = test system: T-47D breast
[42] = test system: TK-10 renal
[43] = test system: U251 CNS
[44] = test system: UACC-257 melanoma
[45] = test system: UACC-62 melanoma
[46] = test system: UO-31 renal
[47] = test system: 786-0 renal
[48] = test system: CAKI-1 renal
[49] = test system: HOP-92 NSCLC
[50] = test system: M14 melanoma
[51] = test system: MDA-MB-435
[52] = test system: NCI-H460 lung
[53] = test system: OVCAR-4 ovarian
[54] = test system: SK-MEL-2 melanoma
[55] = test system: SNB-75 CNS
[56] = test system: SR leukemia

For `O=C(CNc1cccc([N+](=O)[O-])c1)Nn1c(-c2ccccc2)nc2ccccc2c1=O`, which TGI [1] is on record?
The TGI was 0.274 µM.

What about the TGI [2] of the same compound?
The TGI was 4.9 µM.

And the TGI [3]?
Its TGI is 3.34 µM.

What about the TGI [4] of the same compound?
The TGI was > 100 µM.

And the TGI [5]?
The TGI was 1.15 µM.

And the TGI [6]?
The TGI was 3.17 µM.

And the TGI [7]?
Its TGI is 5.47 µM.

And the TGI [8]?
Its TGI is 6.86 µM.

And the TGI [9]?
The TGI was 2.81 µM.

And the TGI [10]?
Its TGI is 2.09 µM.

What about the TGI [11] of the same compound?
The TGI was 2.23 µM.

What about the TGI [12] of the same compound?
Its TGI is 1.81 µM.

And the TGI [13]?
Its TGI is 4.25 µM.

What about the TGI [14] of the same compound?
The TGI was 3.6 µM.

And the TGI [15]?
The TGI was 1.08 µM.

And the TGI [16]?
Its TGI is 0.482 µM.

And the TGI [17]?
Its TGI is 4.42 µM.

What about the TGI [18] of the same compound?
Its TGI is 0.663 µM.

What about the TGI [19] of the same compound?
Its TGI is 2.41 µM.

What about the TGI [20] of the same compound?
The TGI was 1.71 µM.

And the TGI [21]?
The TGI was 2.9 µM.

What about the TGI [22] of the same compound?
The TGI was 0.818 µM.

What about the TGI [23] of the same compound?
The TGI was 0.512 µM.

What about the TGI [24] of the same compound?
The TGI was 9.32 µM.

And the TGI [25]?
The TGI was 1.89 µM.

What about the TGI [26] of the same compound?
Its TGI is 5.15 µM.

What about the TGI [27] of the same compound?
Its TGI is 3.46 µM.

And the TGI [28]?
Its TGI is 5.31 µM.

And the TGI [29]?
Its TGI is 1.85 µM.

What about the TGI [30] of the same compound?
The TGI was 3.36 µM.

What about the TGI [31] of the same compound?
Its TGI is 1.08 µM.

What about the TGI [32] of the same compound?
The TGI was 4.22 µM.

What about the TGI [33] of the same compound?
Its TGI is 3.28 µM.

And the TGI [34]?
The TGI was 4.7 µM.

What about the TGI [35] of the same compound?
The TGI was 3.04 µM.

And the TGI [36]?
The TGI was 2.31 µM.

And the TGI [37]?
Its TGI is 2.04 µM.

What about the TGI [38] of the same compound?
Its TGI is 2.73 µM.

What about the TGI [39] of the same compound?
Its TGI is 4.99 µM.

What about the TGI [40] of the same compound?
Its TGI is 2.05 µM.

What about the TGI [41] of the same compound?
The TGI was 4.54 µM.

What about the TGI [42] of the same compound?
Its TGI is 3.95 µM.

And the TGI [43]?
Its TGI is 2.88 µM.

What about the TGI [44] of the same compound?
The TGI was 11.8 µM.

What about the TGI [45] of the same compound?
The TGI was 0.608 µM.

And the TGI [46]?
The TGI was 4.12 µM.

With `O=C1c2ccccc2NC(=O)C2C1C(c1ccccc1)CC2(O)c1ccccc1` (configuration not stated) as the compound, how does the TGI [47] read?
Its TGI is > 100 µM.

What about the TGI [1] of the same compound?
Its TGI is > 100 µM.

What about the TGI [2] of the same compound?
The TGI was > 100 µM.

What about the TGI [3] of the same compound?
The TGI was > 100 µM.

What about the TGI [48] of the same compound?
The TGI was > 100 µM.

What about the TGI [5] of the same compound?
Its TGI is > 100 µM.

What about the TGI [6] of the same compound?
The TGI was 36.9 µM.

What about the TGI [7] of the same compound?
Its TGI is > 100 µM.

What about the TGI [8] of the same compound?
The TGI was > 100 µM.

What about the TGI [9] of the same compound?
Its TGI is > 100 µM.

What about the TGI [10] of the same compound?
Its TGI is 37.8 µM.

And the TGI [11]?
Its TGI is > 100 µM.

What about the TGI [12] of the same compound?
The TGI was > 100 µM.

And the TGI [13]?
The TGI was > 100 µM.

What about the TGI [49] of the same compound?
Its TGI is 67 µM.

What about the TGI [14] of the same compound?
Its TGI is 98.3 µM.

What about the TGI [15] of the same compound?
The TGI was > 100 µM.

What about the TGI [16] of the same compound?
The TGI was > 100 µM.

And the TGI [17]?
Its TGI is > 100 µM.

And the TGI [18]?
The TGI was > 100 µM.

What about the TGI [50] of the same compound?
Its TGI is > 100 µM.

What about the TGI [19] of the same compound?
The TGI was > 100 µM.

And the TGI [20]?
The TGI was > 100 µM.

What about the TGI [21] of the same compound?
Its TGI is > 100 µM.

What about the TGI [51] of the same compound?
Its TGI is > 100 µM.

What about the TGI [22] of the same compound?
The TGI was 71.5 µM.

What about the TGI [24] of the same compound?
The TGI was > 100 µM.

What about the TGI [52] of the same compound?
The TGI was > 100 µM.

What about the TGI [25] of the same compound?
Its TGI is > 100 µM.

What about the TGI [26] of the same compound?
Its TGI is > 100 µM.

What about the TGI [53] of the same compound?
The TGI was > 100 µM.

And the TGI [27]?
Its TGI is > 100 µM.

And the TGI [28]?
Its TGI is > 100 µM.

And the TGI [29]?
The TGI was 74.3 µM.

What about the TGI [31] of the same compound?
The TGI was > 100 µM.

And the TGI [32]?
Its TGI is > 100 µM.

And the TGI [33]?
Its TGI is > 100 µM.

And the TGI [34]?
Its TGI is > 100 µM.

And the TGI [54]?
The TGI was > 100 µM.

What about the TGI [35] of the same compound?
Its TGI is > 100 µM.

And the TGI [36]?
Its TGI is > 100 µM.

And the TGI [37]?
The TGI was > 100 µM.

What about the TGI [38] of the same compound?
The TGI was > 100 µM.

And the TGI [39]?
The TGI was > 100 µM.

What about the TGI [55] of the same compound?
Its TGI is 0.0677 µM.

And the TGI [56]?
The TGI was > 100 µM.

And the TGI [40]?
The TGI was > 100 µM.

And the TGI [41]?
Its TGI is > 100 µM.

And the TGI [42]?
Its TGI is 99.7 µM.

And the TGI [44]?
Its TGI is > 100 µM.

What about the TGI [45] of the same compound?
The TGI was > 100 µM.
